Measured values taken from PMC10757358 (The Journal of steroid biochemistry and molecular biology, 2023).

Columns and labels:
[1] = target: T1, CYP11B2 (Homo sapiens, UniProt P19099); test: biochemical
T1 sequence (P19099 25-503): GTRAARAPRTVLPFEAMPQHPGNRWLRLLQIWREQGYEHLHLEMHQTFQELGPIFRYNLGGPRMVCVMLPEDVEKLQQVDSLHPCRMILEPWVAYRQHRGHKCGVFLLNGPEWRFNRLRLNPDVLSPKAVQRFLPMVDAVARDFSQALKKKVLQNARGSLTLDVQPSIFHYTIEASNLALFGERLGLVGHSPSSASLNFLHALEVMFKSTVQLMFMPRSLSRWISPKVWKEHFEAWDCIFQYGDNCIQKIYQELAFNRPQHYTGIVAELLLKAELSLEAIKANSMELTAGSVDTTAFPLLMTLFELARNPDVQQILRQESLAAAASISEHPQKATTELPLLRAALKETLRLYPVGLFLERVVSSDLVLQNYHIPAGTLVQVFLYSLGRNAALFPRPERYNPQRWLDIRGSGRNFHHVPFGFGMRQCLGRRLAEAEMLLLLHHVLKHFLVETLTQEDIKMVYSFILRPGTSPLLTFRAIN

[2] = target: T2, CYP11B1 (Homo sapiens, UniProt P15538); test: biochemical
T2 sequence (P15538 25-503): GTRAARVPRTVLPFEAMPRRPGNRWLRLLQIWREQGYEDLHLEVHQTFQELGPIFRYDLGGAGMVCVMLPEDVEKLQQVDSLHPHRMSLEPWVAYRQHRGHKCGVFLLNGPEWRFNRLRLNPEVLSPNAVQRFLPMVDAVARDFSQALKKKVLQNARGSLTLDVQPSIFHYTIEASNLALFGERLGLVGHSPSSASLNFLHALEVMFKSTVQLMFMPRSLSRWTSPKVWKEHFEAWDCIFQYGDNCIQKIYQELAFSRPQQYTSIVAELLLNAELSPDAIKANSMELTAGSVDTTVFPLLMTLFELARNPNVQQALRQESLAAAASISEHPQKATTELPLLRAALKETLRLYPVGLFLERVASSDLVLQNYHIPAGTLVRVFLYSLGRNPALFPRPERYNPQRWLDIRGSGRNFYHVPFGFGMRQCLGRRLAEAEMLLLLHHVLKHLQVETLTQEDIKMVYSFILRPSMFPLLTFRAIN

[3] = test system: CYP11B2; details: read-out: reported IC50, CYP11B2; in-vitro studies; cited from earlier work
[4] = test system: NCI-H295R human adrenocortical cancer cell line; details: NCI-H295R cells
[5] = target: T3, CYP11A1 (Homo sapiens, UniProt P05108); test: biochemical
[6] = target: T3, CYP11A1
[7] = test system: CYP11B1; details: read-out: reported IC50, CYP11B1; in-vitro studies; cited from earlier work

T3 sequence (P05108 40-521): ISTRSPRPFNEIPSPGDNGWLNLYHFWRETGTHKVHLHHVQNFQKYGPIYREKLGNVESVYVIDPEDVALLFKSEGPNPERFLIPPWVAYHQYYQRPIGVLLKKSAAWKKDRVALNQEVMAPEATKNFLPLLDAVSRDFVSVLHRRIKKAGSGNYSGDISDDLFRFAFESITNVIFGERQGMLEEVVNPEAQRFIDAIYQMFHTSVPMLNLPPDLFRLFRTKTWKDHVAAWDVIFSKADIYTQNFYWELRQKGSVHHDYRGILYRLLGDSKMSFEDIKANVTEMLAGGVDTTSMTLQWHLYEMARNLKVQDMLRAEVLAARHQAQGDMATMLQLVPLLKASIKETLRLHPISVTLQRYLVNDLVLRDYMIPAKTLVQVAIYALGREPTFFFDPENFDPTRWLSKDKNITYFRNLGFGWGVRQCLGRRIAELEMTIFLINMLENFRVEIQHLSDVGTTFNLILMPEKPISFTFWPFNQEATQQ

With `C[C@]12CC[C@H]3[C@@H](CCC4=CC(=O)CC[C@@]43C)[C@@H]1CC[C@@H]2C(=O)CO` [DOC, 11-deoxycorticosterone] the Kd [1] was 270 nM and the Kd [2] was 420 nM.
In the case of `N#Cc1ccc([C@H]2CCc3cncn32)c(F)c1` [LCI699, Osilodrostat], the IC50 [3] is listed as […], the “aldosterone production, % of baseline” value ([4]; 0-1000 nM LCI699, 24 h) is listed as 2 ± 3% and the androstenedione level ([4]; 0-1000 nM LCI699, 24 h) is listed as “remained unchanged”. For the same compound, the “corticosterone, % of the baseline” value ([4]; 0-1000 nM LCI699, 24 h) was 1 ± 2%, the “cortisol production, % of baseline” value ([4]; 0-1000 nM LCI699, 24 h) was 13 ± 4% and the 11-deoxycortisol level ([4]; higher concentrations of LCI699, changes did not reach statistical significance) was “appeared to increase”. For the same compound, the Kd [5] was 18800 nM, the inhibition [6] was under 25% and the IC50 [7] was […].
